Experimental data as given in PubChem BioAssay (NCI).
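Five compound concentrations were applied to cells in 96-well plates for 48 hours; endpoints were derived by simple linear interpolation of the resulting dose-response curve. The concentration for 50% growth inhibition is given as GI50. TGI denotes the concentration required for complete inhibition of growth.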

Assays:
Test in all cases: growth of human tumour cells (NCI), 48 h
NCI-H226 lung = test system: NCI-H226 lung
SK-MEL-5 melanoma = test system: SK-MEL-5 melanoma
OVCAR-5 ovarian = test system: OVCAR-5 ovarian
MDA-MB-231 breast = test system: MDA-MB-231 breast
SR leukemia = test system: SR leukemia
SF-268 CNS = test system: SF-268 CNS
OVCAR-3 ovarian = test system: OVCAR-3 ovarian
SF-539 CNS = test system: SF-539 CNS
KM12 colon = test system: KM12 colon
MALME-3M melanoma = test system: MALME-3M melanoma

Row | Structure (SMILES) | GI50 (NCI-H226 lung) | TGI (NCI-H226 lung) | GI50 (SK-MEL-5 melanoma) | TGI (SK-MEL-5 melanoma) | GI50 (OVCAR-5 ovarian) | TGI (OVCAR-5 ovarian) | GI50 (MDA-MB-231 breast) | TGI (MDA-MB-231 breast) | GI50 (SR leukemia) | TGI (SR leukemia) | GI50 (SF-268 CNS) | TGI (SF-268 CNS) | GI50 (OVCAR-3 ovarian) | TGI (OVCAR-3 ovarian) | GI50 (SF-539 CNS) | TGI (SF-539 CNS) | GI50 (KM12 colon) | TGI (KM12 colon) | GI50 (MALME-3M melanoma) | TGI (MALME-3M melanoma)
1 | N#CN1CC[C@H](C(=O)Nc2ncc(-c3ccncc3)s2)C1 | 0.151 µM | 1.5 µM | 0.0925 µM | 5.58 µM | 0.0576 µM | > 77.3 µM | < 0.0266 µM | > 50.2 µM | < 0.01 µM | 4.18 µM | 0.127 µM | 6.96 µM | < 0.0162 µM | 0.989 µM | < 0.016 µM | 0.164 µM | < 0.0213 µM | 3.44 µM | < 0.0129 µM | 0.0694 µM
2 | BrCc1ccc(CBr)cc1 | 5.37 µM | 15.6 µM | 14.3 µM | 40.2 µM | 9.61 µM | 29.1 µM | 13.9 µM | 35.1 µM | > 100 µM | > 100 µM | 5.82 µM | 18 µM | 4.1 µM | 17.4 µM | 3.02 µM | 11.8 µM | 1.29 µM | 6.71 µM | 4.56 µM | 12.5 µM
3 | CN1COc2c(n(C)c(=O)[nH]c2=O)C1 | – | > 100 µM | – | > 100 µM | – | > 100 µM | – | – | – | > 80.6 µM | – | > 100 µM | – | > 100 µM | – | > 100 µM | – | > 100 µM | – | > 100 µM
4 | O=C(O)/C(Cl)=C(\Cl)C(=O)Nc1ccc(Cl)c(Cl)c1Cl | – | 35.5 µM | – | 68.9 µM | – | 32.1 µM | – | – | – | 70.1 µM | – | 42.8 µM | – | 35.5 µM | – | 35.6 µM | – | 36.6 µM | – | 34.9 µM
5 | CN(C)CC1CCCC1=O (configuration not stated) | – | 30.5 µM | – | 6.71 µM | – | 12.5 µM | – | 7.06 µM | – | 0.289 µM | – | 13.6 µM | – | 2.91 µM | – | 14.8 µM | – | 5.85 µM | – | 2.57 µM
6 | COc1ccc(C(Cl)=C(c2ccc(OCCN(C)C)cc2)c2ccc(OCCN(C)C)cc2)cc1 | – | 3.42 µM | – | 3.52 µM | – | 3.3 µM | – | – | – | 3.16 µM | – | 4.71 µM | – | 5.02 µM | – | 2.93 µM | – | 2.83 µM | – | 3.35 µM
7 | CN1CCN(Cc2ccc(NC(=O)c3[nH]ncc3Nc3ncnc4sc5c(c34)CCCC5)cc2)CC1 | – | – | 0.543 µM | 1.87 µM | 0.383 µM | 1.73 µM | 0.333 µM | 1.45 µM | 0.173 µM | 0.527 µM | 0.438 µM | 2 µM | 0.22 µM | 1.34 µM | 0.457 µM | 1.71 µM | 0.222 µM | 1.29 µM | 1.35 µM | 2.82 µM
8 | Cn1c2ccccc2n2c(=O)c3c(c(C#N)c12)CCCC3 | – | > 100 µM | – | > 100 µM | – | > 100 µM | – | – | – | > 100 µM | – | > 100 µM | – | > 100 µM | – | > 100 µM | – | > 100 µM | – | > 100 µM
9 | CC(C)c1c2[nH]c3ccccc3c2c(C(C)C)c2[nH]c3ccccc3c12 | – | > 82.8 µM | – | > 100 µM | – | > 100 µM | – | – | – | > 100 µM | – | > 100 µM | – | > 100 µM | – | > 100 µM | – | > 100 µM | – | > 100 µM
10 | COc1ccc(C2[C@@H](Cl)C(=O)N2c2cc(OC)c(OC)c(OC)c2)cc1Cl (some centres not stated) | 0.239 µM | 34 µM | 0.102 µM | 0.795 µM | 0.369 µM | > 100 µM | 0.273 µM | 26.1 µM | 0.0551 µM | > 100 µM | 0.291 µM | 30.6 µM | 0.12 µM | 0.576 µM | – | – | 0.178 µM | 18.5 µM | 20.7 µM | 72.4 µM
11 | N#Cc1c(N)[nH]c2ccc(Sc3ccccc3)cc12 | – | 1.29 µM | – | 4.43 µM | – | 18 µM | – | 15.4 µM | – | 6.25 µM | – | 15.4 µM | – | 15.8 µM | – | 0.694 µM | – | 10.7 µM | – | –
12 | Cc1ccc(S(=O)OC2C3CC4CC(C3)CC2C4)cc1 (configuration not stated) | – | > 100 µM | – | > 100 µM | – | > 100 µM | – | – | – | > 100 µM | – | > 100 µM | – | > 100 µM | – | > 100 µM | – | > 100 µM | – | > 100 µM
13 | N/N=C1\CC(=O)NC(=O)N1 | – | > 100 µM | – | > 100 µM | – | > 100 µM | – | > 100 µM | – | > 100 µM | – | > 100 µM | – | > 100 µM | – | – | – | > 100 µM | – | > 100 µM
14 | [N-]=[N+]=C1C(=O)C2CC3CC(C2)CC1C3 | – | > 100 µM | – | > 100 µM | – | > 100 µM | – | – | – | > 100 µM | – | > 100 µM | – | > 100 µM | – | > 100 µM | – | > 100 µM | – | > 100 µM
15 | O=[N+]([O-])c1cc(S(=O)(=O)Oc2ccccc2)ccc1Cl | 7.71 µM | 21.1 µM | 4.06 µM | 15 µM | 2.29 µM | 5.17 µM | 3.89 µM | 16.2 µM | 0.421 µM | 5.8 µM | 1.83 µM | 3.4 µM | 1.49 µM | 2.85 µM | 3.52 µM | 10.4 µM | 1.47 µM | 2.89 µM | – | –
16 | CCC1(O)C(=O)OCc2c1cc1n(c2=O)Cc2cc3cc(N)ccc3nc2-1 (configuration not stated) | – | – | – | 0.0761 µM | – | 2.94 µM | – | > 64.8 µM | – | 0.0122 µM | – | – | – | 0.469 µM | – | < 0.01 µM | – | – | – | 1.33 µM
17 | CN1CCN(CC(O)COc2c(Br)c(Br)c(Br)c3c2OC(C)(C)C3)CC1 (configuration not stated) | 24.2 µM | 61.4 µM | 1.83 µM | 3.27 µM | 17.7 µM | 43.7 µM | 2.56 µM | 6.8 µM | 1.95 µM | 4.75 µM | 5.79 µM | 24.1 µM | 3.56 µM | 17.4 µM | 3.21 µM | 13.5 µM | 6.06 µM | 43.2 µM | – | –
18 | O=C(NC1CCCC1=O)c1ccccc1 (configuration not stated) | – | > 100 µM | – | > 100 µM | – | > 100 µM | – | – | – | > 100 µM | – | > 100 µM | – | > 100 µM | – | > 100 µM | – | > 100 µM | – | > 100 µM
19 | O=C(Oc1cccnc1)c1ccsc1Nc1ccnc(C(F)(F)F)c1 | 22.3 µM | > 100 µM | 5.26 µM | 30.1 µM | 4.67 µM | > 100 µM | 6.03 µM | > 100 µM | 3.74 µM | 47.1 µM | 4.54 µM | > 100 µM | 8.76 µM | > 100 µM | – | – | 3.38 µM | 10.3 µM | 45.6 µM | > 100 µM
